Assay results taken from the supplement of paper PMC10307832.

Tests used:
Experiment in all cases: relative viability (nuclei count vs DMSO), 5 days (fraction); higher = more cells survive
YM155 + Foretinib = compound: COCC[n+]1c2c(n(Cc3cnccn3)c1C)C(=O)c1ccccc1C2=O [YM155] + COc1cc2c(Oc3ccc(NC(=O)C4(C(=O)Nc5ccc(F)cc5)CC4)cc3F)ccnc2cc1OCCCN1CCOCC1 [Foretinib] (partner 0.25 µM)
Procedure, shortened: (§1)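 One day after seeding in 1536-well plates, lung cancer cell lines were dosed by pin tool. Dosing was either single-drug or a fixed anchor-drug dose plus five library-drug doses (not always all listed) in √10 steps. After 5 days, nuclei were stained in one fix-and-stain step and counted on 4× images, and relative viability is the nuclei count of treated wells over that of vehicle wells, given as the median of duplicate plates.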

YM155 + Bortezomib = compound: COCC[n+]1c2c(n(Cc3cnccn3)c1C)C(=O)c1ccccc1C2=O [YM155] + CC(C)C[C@H](NC(=O)[C@H](Cc1ccccc1)NC(=O)c1cnccn1)B(O)O [Bortezomib] (partner 0.002 µM)
Procedure, shortened: as §1

YM155 + Linsitinib = compound: COCC[n+]1c2c(n(Cc3cnccn3)c1C)C(=O)c1ccccc1C2=O [YM155] + C[C@]1(O)C[C@@H](c2nc(-c3ccc4ccc(-c5ccccc5)nc4c3)c3c(N)nccn32)C1 [Linsitinib] (partner 1 µM)
Procedure, shortened: as §1

Quizartinib + Tozasertib = compound: CC(C)(C)c1cc(NC(=O)Nc2ccc(-c3cn4c(n3)sc3cc(OCCN5CCOCC5)ccc34)cc2)no1 [Quizartinib] + Cc1cc(Nc2cc(N3CCN(C)CC3)nc(Sc3ccc(NC(=O)C4CC4)cc3)n2)n[nH]1 [Tozasertib] (partner 0.1 µM)
Procedure, shortened: as §1

| Cell Line | relative viability (YM155 + Foretinib; first compound 0.002 µM) | relative viability (YM155 + Foretinib; first compound 0.006325 µM) | relative viability (YM155 + Foretinib; first compound 0.02 µM) | relative viability (YM155 + Foretinib; first compound 0.06325 µM) | relative viability (YM155 + Bortezomib; first compound 0.002 µM) | relative viability (YM155 + Bortezomib; first compound 0.006325 µM) | relative viability (YM155 + Bortezomib; first compound 0.02 µM) | relative viability (YM155 + Bortezomib; first compound 0.06325 µM) | relative viability (YM155 + Linsitinib; first compound 0.002 µM) | relative viability (YM155 + Linsitinib; first compound 0.006325 µM) | relative viability (YM155 + Linsitinib; first compound 0.02 µM) | relative viability (YM155 + Linsitinib; first compound 0.06325 µM) | relative viability (Quizartinib + Tozasertib; first compound 0.001 µM) | relative viability (Quizartinib + Tozasertib; first compound 0.003162 µM) | relative viability (Quizartinib + Tozasertib; first compound 0.01 µM) | relative viability (Quizartinib + Tozasertib; first compound 0.03162 µM) | relative viability (Quizartinib + Tozasertib; first compound 0.1 µM) |
| --- | --- | --- | --- | --- | --- | --- | --- | --- | --- | --- | --- | --- | --- | --- | --- | --- | --- |
| EBC-1 | 0.0935 | 0.0954 | 0.0823 | 0.089 | 0.613 | 0.458 | 0.566 | 0.593 | 0.8 | 0.925 | 0.864 | 0.755 | – | – | – | – | – |
| EKVX | 0.858 | 0.757 | 1.32 | 0.69 | 0.955 | 0.934 | 1.08 | 0.984 | 0.958 | 1.09 | 1.04 | 0.697 | 0.176 | 0.323 | 0.347 | 0.369 | 0.334 |
| EMC-BAC-2 | 1.03 | 0.986 | 0.966 | 0.95 | 1.03 | 1.08 | 1.04 | 1.06 | 0.85 | 0.83 | 0.597 | 0.818 | 0.262 | 0.259 | 0.281 | – | 0.282 |
| EPLC-272H | 0.694 | 0.71 | 0.849 | 0.735 | 0.846 | 1.04 | 0.875 | 0.862 | 1.22 | 1.19 | 1.1 | 1.06 | 0.226 | 0.208 | 0.246 | 0.33 | 0.297 |
| H3255 | 0.917 | 0.896 | 0.998 | 1.07 | 0.711 | 0.719 | 0.858 | 0.693 | 1.04 | 0.875 | 0.917 | 0.981 | 0.59 | 0.58 | 0.508 | 0.584 | 0.544 |
| HARA | 0.892 | 1.03 | 0.94 | 1.04 | 1.06 | 1.1 | 1.14 | 1.04 | 0.902 | 0.946 | 1.04 | 0.931 | – | 0.101 | 0.102 | 0.0944 | 0.122 |
| HCC-15 | 0.992 | 1.05 | 0.888 | 0.515 | 0.939 | 1.02 | 0.965 | 0.953 | 0.809 | 0.627 | 0.872 | 0.798 | – | 0.429 | 0.602 | 0.29 | 0.2 |
| HCC-44 | – | – | – | – | 0.871 | 0.908 | 0.968 | 0.936 | 0.712 | 0.724 | 0.715 | 0.664 | – | 0.867 | 0.849 | 0.645 | 0.689 |
| HCC-78 | 0.53 | 0.51 | 0.543 | 0.586 | 0.536 | 0.569 | 0.552 | 0.656 | 0.615 | 0.494 | 0.486 | 0.598 | 0.453 | 0.325 | 0.365 | 0.368 | 0.384 |
| HCC-366 | 0.924 | 0.899 | 0.951 | 1.11 | 1.1 | 1.1 | 0.917 | 1.02 | 0.683 | 0.61 | 0.659 | 0.676 | 0.11 | 0.0914 | 0.0628 | 0.0575 | 0.0582 |
